Source: article PMC5896380, “Selective imaging of cathepsin L in breast cancer by fluorescent activity-based probes” (Chemical Science, 2018)
Like-named read-outs stand apart in the source and are kept apart here. Non-standard residues stand in square brackets, D forms with d. *: point of attachment. Phe(F5) = N[C@@H](Cc1c(F)c(F)c(F)c(F)c1F)C(=O)O; Phe(3,4-F2) = N[C@@H](Cc1ccc(F)c(F)c1)C(=O)O; Phe(3-Cl) = N[C@@H](Cc1cccc(Cl)c1)C(=O)O; Phe(2-Cl) = N[C@@H](Cc1ccccc1Cl)C(=O)O; ACC = NC(=O)Cc1cc(=O)oc2cc(N*)ccc12; Orn = NCCC[C@H](N)C(=O)O; Dab = NCC[C@H](N)C(=O)O; Bn = c1ccc(C*)cc1

Tests used:
Assay type in all cases: biochemical
cathepsin L = target: T1, cathepsin L (Homo sapiens, UniProt P07711); test: Kinetic parameters of ACC substrates with cathepsin L; settings: for kcat/KM Cath-L: Fig. 5B, triplicate
T1 construct: made in house
Protocol: (§1) All kinetic experiments were performed using fMax (Molecular Devices) and CLARIOStar (BMG LABTECH) spectrofluorimeters operating in kinetic mode using 96-well plates. ACC-labeled substrates were screened using 355 nm and 460 nm wavelengths (excitation and emission, respectively). […] The buffer was prepared at room temperature and the enzyme kinetic studies were performed at 37 °C.
(§2) Classic substrate velocity plots were analyzed according to Michaelis–Menten kinetics and a detailed protocol for the determination of kinetic parameters for ACC-tagged substrates is found elsewhere.[56] […] Experiments were repeated at least three times and results are presented as an average. The SDs were below 15%.

cathepsin B = target: T2, cathepsin B (Homo sapiens, UniProt P07858); test: Kinetic parameters of ACC substrates with cathepsin B; settings: for kcat/KM Cath-B: Fig. 5B, pH 5.5, 37 °C, cathepsin B 4–15 nM, triplicate, SD below 15%
T2 construct: made in house
Protocol: as §1, §2

cathepsin V = target: T3, cathepsin V (Homo sapiens, UniProt O60911); test: Kinetic parameters of ACC substrates with cathepsin V; settings: for kcat/KM Cath-V: Fig. 5B, pH 5.5, 37 °C, cathepsin V 10–20 nM, triplicate, SD below 15%
T3 construct: made in house
Protocol: as §1, §2

cathepsin K = target: T4, cathepsin K (Homo sapiens, UniProt P43235); test: Kinetic parameters of ACC substrates with cathepsin K; settings: for kcat/KM Cath-K: Fig. 5B, pH 5.5, 37 °C, cathepsin K 5–20 nM, triplicate, SD below 15%
T4 construct: made in house
T4 sequence (P43235 115-329): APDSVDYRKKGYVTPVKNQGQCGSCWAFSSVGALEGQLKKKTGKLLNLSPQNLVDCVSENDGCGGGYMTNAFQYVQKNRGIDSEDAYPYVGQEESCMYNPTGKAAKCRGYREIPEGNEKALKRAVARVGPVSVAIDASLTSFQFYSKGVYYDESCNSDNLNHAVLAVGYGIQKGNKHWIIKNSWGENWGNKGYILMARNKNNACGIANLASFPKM
Protocol: as §1, §2

cathepsin S = target: T5, cathepsin S (Homo sapiens, UniProt P25774); test: Kinetic parameters of ACC substrates with cathepsin S; settings: for kcat/KM Cath-S: Fig. 5B, pH 5.5, 37 °C, cathepsin S 5–20 nM, triplicate, SD below 15%
T5 construct: made in house
Protocol: as §1, §2

[1] = Fig. 4B, ACC substrates, 100 mM sodium acetate, 100 mM NaCl, 10 mM DTT, 1 mM EDTA, pH 5.5, 37 °C, cathepsin L 0.1–0.5 nM, average of at least three, SD below 15%
[2] = Table S2, cathepsin L, four independent experiments, S.D. below 15%
[3] = pH 5.5, 37 °C, cathepsin L 0.1–0.5 nM, SD below 15%
[4] = Table S7, four independent experiments, S.D. below 15%

T1 sequence (P07711 114-333): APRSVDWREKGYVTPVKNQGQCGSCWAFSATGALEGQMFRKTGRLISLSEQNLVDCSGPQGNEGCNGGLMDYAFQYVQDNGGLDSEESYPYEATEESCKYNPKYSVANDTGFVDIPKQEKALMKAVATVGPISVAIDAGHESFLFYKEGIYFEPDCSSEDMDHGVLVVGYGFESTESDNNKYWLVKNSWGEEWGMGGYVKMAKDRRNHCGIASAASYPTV
T3 sequence (O60911 114-334): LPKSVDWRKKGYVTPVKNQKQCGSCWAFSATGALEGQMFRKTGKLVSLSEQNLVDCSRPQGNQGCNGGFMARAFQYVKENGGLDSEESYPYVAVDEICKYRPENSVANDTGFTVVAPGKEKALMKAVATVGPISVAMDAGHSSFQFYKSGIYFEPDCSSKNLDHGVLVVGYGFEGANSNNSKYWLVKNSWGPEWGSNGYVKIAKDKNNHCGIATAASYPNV
T5 sequence (P25774 115-331): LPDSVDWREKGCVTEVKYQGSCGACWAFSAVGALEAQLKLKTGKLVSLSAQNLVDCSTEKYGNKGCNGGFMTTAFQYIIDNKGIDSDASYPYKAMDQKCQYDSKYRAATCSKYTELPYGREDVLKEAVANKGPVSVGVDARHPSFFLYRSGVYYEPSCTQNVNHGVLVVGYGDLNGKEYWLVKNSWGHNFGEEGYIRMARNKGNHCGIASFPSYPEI

Row | Substance | kcat/KM (cathepsin L; [1]) | kcat/KM Cath-B (cathepsin B) | kcat/KM Cath-V (cathepsin V) | kcat/KM Cath-K (cathepsin K) | kcat/KM Cath-S (cathepsin S) | kcat/KM Cath-L (cathepsin L; [3]) | other results
1 | Ac-Dap-Orn-Phe(3-Cl)-Nle(OBzl)-ACC | 47,400,000 M^-1s^-1 | – | – | – | – | – | kcat (cathepsin L; [2]): 124 s⁻¹; kcat/KM (cathepsin L; [2]): 47,400,000 M-1s-1; Km (cathepsin L; Table S2, cathepsin L, four independent experiments, S.D. below 15%, read-out: KM): 2.63 µM; hydrolysis by cathepsin L relative to Ac-His-Arg-Phe-Arg-ACC substrate (cathepsin L; kcat/KM compared with reference substrate): ~4 times
2 | Ac-H[dK][Phe(F5)]R-{ACC} (SMILES CC(=O)N[C@@H](Cc1c[nH]cn1)C(=O)N[C@H](CCCCN)C(=O)N[C@@H](Cc1c(F)c(F)c(F)c(F)c1F)C(=O)N[C@@H](CCCNC(=N)N)C(=O)Nc1ccc2c(CC(N)=O)cc(=O)oc2c1) | – | 175 M⁻¹ s⁻¹ | 1,010 M^-1s^-1 | 29 M⁻¹ s⁻¹ | < 10 M⁻¹ s⁻¹ | 715,000 M^-1s^-1 | –
3 | Ac-H[dL][Phe(F5)]R-{ACC} (SMILES CC(=O)N[C@@H](Cc1c[nH]cn1)C(=O)N[C@H](CC(C)C)C(=O)N[C@@H](Cc1c(F)c(F)c(F)c(F)c1F)C(=O)N[C@@H](CCCNC(=N)N)C(=O)Nc1ccc2c(CC(N)=O)cc(=O)oc2c1) | – | 135 M⁻¹ s⁻¹ | 353 M⁻¹ s⁻¹ | < 10 M⁻¹ s⁻¹ | < 10 M⁻¹ s⁻¹ | 405,900 M^-1s^-1 | –
4 | Ac-H[dQ][Phe(F5)]R-{ACC} (SMILES CC(=O)N[C@@H](Cc1c[nH]cn1)C(=O)N[C@H](CCC(N)=O)C(=O)N[C@@H](Cc1c(F)c(F)c(F)c(F)c1F)C(=O)N[C@@H](CCCNC(=N)N)C(=O)Nc1ccc2c(CC(N)=O)cc(=O)oc2c1) | – | 130 M⁻¹ s⁻¹ | 1,070 M^-1s^-1 | < 10 M⁻¹ s⁻¹ | < 10 M⁻¹ s⁻¹ | 336,900 M^-1s^-1 | –
5 | Ac-H[dT][Phe(F5)]R-{ACC} (SMILES CC(=O)N[C@@H](Cc1c[nH]cn1)C(=O)N[C@@H](C(=O)N[C@@H](Cc1c(F)c(F)c(F)c(F)c1F)C(=O)N[C@@H](CCCNC(=N)N)C(=O)Nc1ccc2c(CC(N)=O)cc(=O)oc2c1)[C@H](C)O) | – | 94 M⁻¹ s⁻¹ | 286 M⁻¹ s⁻¹ | < 10 M⁻¹ s⁻¹ | < 10 M⁻¹ s⁻¹ | 729,200 M^-1s^-1 | kcat Cat B (cathepsin B; [4]): 0.00673 s⁻¹; kcat/KM Cat B (cathepsin B; [4]): 94 M⁻¹ s⁻¹; Km (cathepsin B; Table S7, four independent experiments, S.D. below 15%, read-out: KM Cat B): 71.5 µM; kcat Cat V (cathepsin V; [4]): 0.0178 s⁻¹; kcat/KM Cat V (cathepsin V; [4]): 286 M⁻¹ s⁻¹; Km (cathepsin V; Table S7, four independent experiments, S.D. below 15%, read-out: KM Cat V): 61.4 µM; kcat/KM Cat K (cathepsin K; [4]): < 10 M⁻¹ s⁻¹; kcat/KM Cat S (cathepsin S; [4]): < 10 M⁻¹ s⁻¹; kcat Cat L (cathepsin L; [4]): 38.6 s⁻¹; Km (cathepsin L; Table S7, four independent experiments, S.D. below 15%, read-out: KM Cat L): 53.1 µM
6 | Ac-H[dV]T(Bn)R-{ACC} (SMILES CC(=O)N[C@@H](Cc1c[nH]cn1)C(=O)N[C@@H](C(=O)N[C@H](C(=O)N[C@@H](CCCNC(=N)N)C(=O)Nc1ccc2c(CC(N)=O)cc(=O)oc2c1)[C@@H](C)OCc1ccccc1)C(C)C) | – | 480 M⁻¹ s⁻¹ | 424 M⁻¹ s⁻¹ | 130 M⁻¹ s⁻¹ | < 10 M⁻¹ s⁻¹ | 158,520 M^-1s^-1 | –
7 | Ac-H[dV][Phe(2-Cl)]R-{ACC} (SMILES CC(=O)N[C@@H](Cc1c[nH]cn1)C(=O)N[C@@H](C(=O)N[C@@H](Cc1ccccc1Cl)C(=O)N[C@@H](CCCNC(=N)N)C(=O)Nc1ccc2c(CC(N)=O)cc(=O)oc2c1)C(C)C) | – | 1,360 M^-1s^-1 | 11,600 M^-1s^-1 | 13,000 M^-1s^-1 | 2,760 M^-1s^-1 | 5,689,000 M^-1s^-1 | –
8 | Ac-H[dV][Phe(3,4-F2)]R-{ACC} (SMILES CC(=O)N[C@@H](Cc1c[nH]cn1)C(=O)N[C@@H](C(=O)N[C@@H](Cc1ccc(F)c(F)c1)C(=O)N[C@@H](CCCNC(=N)N)C(=O)Nc1ccc2c(CC(N)=O)cc(=O)oc2c1)C(C)C) | – | 2,520 M^-1s^-1 | 10,100 M^-1s^-1 | 1,010 M^-1s^-1 | 580 M⁻¹ s⁻¹ | 6,031,000 M^-1s^-1 | –
9 | Ac-[Dab]R[Phe(3-Cl)]R-{ACC} (SMILES CC(=O)N[C@@H](CCN)C(=O)N[C@@H](CCCNC(=N)N)C(=O)N[C@@H](Cc1cccc(Cl)c1)C(=O)N[C@@H](CCCNC(=N)N)C(=O)Nc1ccc2c(CC(N)=O)cc(=O)oc2c1) | 31,960,000 M^-1s^-1 | – | – | – | – | – | –
10 | Ac-[Dab][Orn][Phe(3-Cl)]R-{ACC} (SMILES CC(=O)N[C@@H](CCN)C(=O)N[C@@H](CCCN)C(=O)N[C@@H](Cc1cccc(Cl)c1)C(=O)N[C@@H](CCCNC(=N)N)C(=O)Nc1ccc2c(CC(N)=O)cc(=O)oc2c1) | 35,070,000 M^-1s^-1 | – | – | – | – | – | –
